According to patent publication US20250171404A1, “PCNA INHIBITORS AND USES THEREOF” (CITY OF HOPE, priority 2022, published 2025):

What was measured:
[1] = tested on: SK-N-DZ neuroblastoma cells; experiment: Clonogenic assay with cisplatin; type: cell-based, human; conditions: 500 nM AOH1996, 18 hours
Experimental: FIGS. 3A-3D. Therapeutic properties of AOH1996. FIG. 3A: Normal cells (7SM0032) or cancer cells (SH-SY5Y and SK-N-BE(2)c) cells were fixed, stained with PI, and analyzed by flow cytometry following treatment with 500 nM AOH1996 for the indicated time. FIG. 3B: SK-N-DZ neuroblastoma cells and nonmalignant 7SM0032 stem cells were incubated with 500 nM AOH1996 for 24 h. Then, after being fixed on slides, cell apoptosis were analyzed by a TUNEL assay. Left: TMR fluorophore attached to the free ends of DNA indicates cells undergoing apoptosis. DAPI stained nuclei also shown. Right: Average abundance ±S.D. of apoptotic 7SM0032 (black histogram) and SK-N-DZ (grey histogram) cells relative to the total number of cells are shown in 5 randomly selected fields. FIG. 3C: Human SK-N-DZ neuroblastoma cells were treated with or without the indicated concentrations of cisplatin in the absence or presence of 500 nM of AOH1996 for 18 hours. […] The relative number of colonies determined in triplicates for each treatment condition were averaged and graphed ±SDs (*, P<0.01). […] Cell growth was measured as the percentage of cell confluence by imaging every 6 h for a total of 48 h.
Clonogenic Assay. […] The colonies were stained with 0.5% crystal violet and counted. Synergy between AOH1996 and cisplatin was evaluated using combination indices (Cl) based on the Bliss independence model [C]=(EA+EB−EA*EB)/EAB] […]

[2] = tested on: DNA replication fork extension, SK-N-BE(2)-C or MDA-MB-231 cells; experiment: DNA combing analysis (replication fork extension); type: cell-based; conditions: synchronized cells, 20 minutes
Experimental: FIGS. 7A-7E. Transcription dependent effect on DNA replication and damage. FIG. 7A: Left: Schematic of the cell fractionation procedure. Right: MDA-MB-468 cells were treated by increasing concentrations of AOH1996 (5, 50, or 500 nM) for 24 h. Cells treated with DMSO were used as control. Whole cell extract (WCE) and protein fractions associated with actively transcribed chromatin (CB:RNA+) or with low or non-transcribed chromatin (CB:RNA−) were analyzed by Western blot using antibodies against PCNA, CAF-1, and MCM7. FIG. 7B: Synchronized cancer cells were sequentially incubated in the presence of CldU (light grey) and IdU (dark grey) before and after AOH1996 treatment, respectively. […] Middle and Right: Lengths of CldU (light grey) and IdU (dark grey) incorporated DNA segments measured for more than 30 independent DNA strands from the indicated cancer cell type were averaged and graphed ±S.D. FIG. 7C: Whole cell lysates were extracted from SK-N-AS cells homozygous of the wildtype RPB1 allele or the APIM-mutant allele. Histone H2A.X and γH2A.X was analyzed by Western blot after treatment with or without AOH1996 overnight. FIG. 7D: Histone H2A.X and γH2A.X in whole cell lysates from SK-N-AS cells were analyzed by Western blot after treatment with 500 nM AOH1996 and/or 50 μM DRB overnight. […]

Compound: COc1cccc(Oc2ccccc2NC(=O)CNC(=O)c2cccc3ccccc23)c1 [AOH1996, N-(2-((2-(3-methoxyphenoxy)phenyl)amino)-2-oxoethyl)-1-naphthamide]
- sensitivity to cisplatin (colony formation) [1]: increased the sensitivity of cancer cells to genotoxic agents, including cisplatin
- length of IdU-incorporated DNA strands [2]: IdU-incorporated DNA strands became significantly shorter in cells treated by AOH1996 than untreated control cells
